Measured values as given in patent US20150057335A1, “NOVEL FUSION GENES IDENTIFIED IN LUNG CANCER” (National Cancer Center, priority 2013, published 2015).

Tests used:
[1] = target: TRIM24-BRAF fusion protein (Homo sapiens, UniProt P15056); conditions: NIH3T3 cells stably expressing TRIM24-BRAF, serum-starved, treated for 2 hours; FIG. 10C
Experimental: NIH3T3 cells stably transduced with plasmids expressing EZR-ERBB4 or TRIM24-BRAF cDNA or with empty plasmids were maintained in a serum-free medium overnight, and then treated with DMSO (Sigma) or the indicated inhibitor (dissolved in DMSO) for 2 hours. Whole-cell lysates were subjected to immunoblotting.
Cells were lysed in a RIPA buffer supplemented with Complete Protease and PhosSTOP Phosphatase Inhibitor Cocktail (Roche, Mannheim, Germany). Proteins were subjected to SDS-PAGE, followed by immunoblotting onto polyvinylidene difluoride membranes. The membranes were blocked for one hour with TBS supplemented with 0.1% Tween 20 and 1.0% BSA, and then probed with primary antibodies. After washing with TBS supplemented with 0.1% Tween 20, the membranes were incubated with horseradish peroxidase-conjugated anti-mouse or anti-rabbit secondary antibodies, and then visualized with an enhanced chemiluminescence reagent (Perkin Elmer, Waltham, Mass., USA). Signal intensity was calculated using the LAS3000 imaging system (Quansys Biosciences, West Logan, Utah, USA).

[2] = test system: HER2:HER3 signaling activated by CD74-NRG1 fusion in EFM-19 cells; experiment: HER2:HER3 signaling activation by CD74-NRG1 (EFM-19 reporter cells, conditioned medium, immunoblotting); type: cell-based, human; conditions: EFM-19 cells treated 30 minutes with conditioned medium from H1299 cells expressing CD74-NRG1; FIG. 10A
Experimental: To determine whether cells expressing CD74-NRG1 cDNA secreted NRG1 ligands that activate HER2:HER3 intracellular signaling, EFM-19 breast cancer cells which express both the ERRB2/HER2 and ERBB3/HER3 proteins were used as reporter cells, as previously described (Wilson T. R., et al., Cancer Cell., 2011, 20, 158-72). NCI-H1299 cells transiently transfected with CD74-NRG1-expressing plasmids or empty (control) plasmids were washed twice with PBS and serum-starved overnight by incubation in a serum-free medium. After harvesting of the medium, centrifugation was performed at 4° C. for 5 minutes to remove cell debris. […] Then, whole-cell lysates were subjected to SDS-PAGE and immunoblotting. Cells were lysed in a RIPA buffer supplemented with Complete Protease and PhosSTOP Phosphatase Inhibitor Cocktail (Roche, Mannheim, Germany). Proteins were subjected to SDS-PAGE, followed by immunoblotting onto polyvinylidene difluoride membranes. The membranes were blocked for one hour with TBS supplemented with 0.1% Tween 20 and 1.0% BSA, and then probed with primary antibodies. After washing with TBS supplemented with 0.1% Tween 20, the membranes were incubated with horseradish peroxidase-conjugated anti-mouse or anti-rabbit secondary antibodies, and then visualized with an enhanced chemiluminescence reagent (Perkin Elmer, Waltham, Mass., USA). Signal intensity was calculated using the LAS3000 imaging system (Quansys Biosciences, West Logan, Utah, USA).

EZR-ERBB4 fusion protein = experiment: Constitutive activation of ERBB4 kinase by EZR-ERBB4 fusion and its inhibition (NIH3T3, immunoblotting); type: cell-based, mouse; conditions: NIH3T3 cells stably expressing EZR-ERBB4, serum-starved, treated for 2 hours; FIG. 10B
Text: Whole-cell lysates were subjected to immunoblotting.

TRIM24-BRAF fusion protein, sequence (P15056 with tags, fused parts or gaps): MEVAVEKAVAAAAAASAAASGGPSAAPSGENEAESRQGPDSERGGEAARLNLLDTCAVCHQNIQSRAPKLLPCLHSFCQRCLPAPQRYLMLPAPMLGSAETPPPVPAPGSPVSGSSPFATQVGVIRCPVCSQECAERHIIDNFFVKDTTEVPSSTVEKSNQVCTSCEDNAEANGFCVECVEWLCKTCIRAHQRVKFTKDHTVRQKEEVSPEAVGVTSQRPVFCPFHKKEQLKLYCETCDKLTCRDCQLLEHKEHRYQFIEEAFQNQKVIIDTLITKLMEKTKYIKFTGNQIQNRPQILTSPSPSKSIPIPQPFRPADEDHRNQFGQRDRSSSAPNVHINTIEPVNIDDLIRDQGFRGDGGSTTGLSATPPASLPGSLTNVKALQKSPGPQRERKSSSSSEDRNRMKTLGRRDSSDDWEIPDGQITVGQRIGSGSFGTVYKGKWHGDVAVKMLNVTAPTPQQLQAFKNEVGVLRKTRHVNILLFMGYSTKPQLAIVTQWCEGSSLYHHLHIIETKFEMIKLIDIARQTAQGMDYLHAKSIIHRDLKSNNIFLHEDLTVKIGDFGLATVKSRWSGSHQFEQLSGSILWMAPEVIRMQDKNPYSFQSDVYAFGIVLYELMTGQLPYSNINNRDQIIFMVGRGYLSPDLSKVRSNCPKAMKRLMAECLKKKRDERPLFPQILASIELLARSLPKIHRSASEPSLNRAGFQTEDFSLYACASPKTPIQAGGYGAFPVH

N#CC(=C(/N)Sc1ccccc1N)/C(C#N)=C(\N)Sc1ccccc1N [U0126]
suppressed: ERK phosphorylation (activation) [1]

CS(=O)(=O)CCNCc1ccc(-c2ccc3ncnc(Nc4ccc(OCc5cccc(F)c5)c(Cl)c4)c3c2)o1 [lapatinib]
suppressed: Phosphorylation of ERK [2] | Phosphorylation of HER2 (ERBB2) [2] | Phosphorylation of HER3 (ERBB3) [2] | Phosphorylation of ERBB4 (EZR-ERBB4 fusion protein) | Phosphorylation of ERK (EZR-ERBB4 fusion protein)
